Laboratory results from patent US8946436B2, “Oxazolidinone compounds and their uses in preparation of antibiotics” (Sichuan Gooddoctor Pharmaceutical Group Co., Ltd., priority 2011, dated 2015).
≈ marks a conversion by molar mass, not a printed value.

Legend:
PSSP [1] = test: MIC against clinically isolated strains, PSSP; assay type: cell-based, penicillin sensitive Streptococcus pneumoniae; set-up: MICmode / MICrange: unit not given here
Text: (§1) Standard strains, including Staphylococcus aureus ATCC29213, S. pneumoniae ATCC49619, E. faecalis ATCC29212, are all available from the American Type Culture Collection.
(§2) Clinically isolated strains: There are total 120 clinical strains of gram-positive bacterium including: 37 strains of Staphylococcus aureus (consisting of 14 strains of methicillin sensitive Staphylococcus aureus MSSA and 23 strains of methicillin resistant Staphylococcus aureus MRSA); 27 strains of Streptococcus pneumoniae (consisting of 13 strains of penicillin sensitive Streptococcus pneumoniae PSSP and 14 strains of penicillin insensitive or resistant Streptococcus pneumoniae PISP+PRSP); 15 strains of Streptococcus pyogenes; 17 strains of Streptococcus agalactiae; 24 stains of Enterococcus faecium (consisting of 12 strains of vancomycin sensitive Enterococcus faecium and 12 strains of vancomycin resistant Enterococcus faecium).
(§3) (2) Tested compounds: Compound 13f was prepared by the methods above, with potency of over 98%; Linezolid was purchased from Pfizer, with potency of 100%.
(§4) Staphylococcus and Enterococcus faecium were incubated in Mueller-Hinton agar medium (MHA medium) at 35° C. for 16-20 h; S. pneumoniae was incubated in Cation-Adjusted Mueller-Hinton Broth medium (CAMHB medium) supplemented with 2.5-5.5% (v/v) lysed horse blood (LHB) at 35° C. for 20-24 h; and Streptococcus were incubated in sheep blood-containing medium (prepared by addition of 5% defibrinated sheep blood into MHA media) at 35° C. for 20-24 h in 5% CO2 environment (CO2 incubator). Before test of the compound activity, each stock of the bacteria strains was activated and colonized in the following manner: the stock was transferred and cultured in a liquid culture medium, the culture liquid was smeared onto an agar plate with an inoculating loop to obtain bacterial colonies on the plate after incubation, and then a colony of the bacteria was chose to be suspended into the liquid culture medium for performing the test of compound activity. As a result, fresh bacteria cells were applied to the test. The standard strains were used as sensitive bacterium to control the quality of the experiments, and a plate or tube containing no antibacterial compounds is used as a blank control for the growth of test strains.
(§5) The minimal inhibitory concentration (MIC) of the test compounds on the strains of Streptococcus pneumoniae was determined by a standard broth macrodilution method, while the MIC of the test compounds on the other bacteria stains was determined by standard agar double dilution methods. […] The MIC of the test compound to each strain of the bacteria was determined.

Streptococcus pyogenes = test: MIC against clinically isolated strains, Streptococcus pyogenes; assay type: cell-based; set-up: MICmode / MICrange: unit not given here; settings: Streptococcus pyogenes (15 strains)
Text: as §1, §2, §3, §4, §5

MRSA [2] = test: Minimum bactericidal concentration (MBC) test, MRSA; assay type: cell-based, methicillin resistant Staphylococcus aureus
Method: as §4
(§6) The minimal inhibitory concentration (MIC) of the test compounds on the strains of Streptococcus pneumoniae was determined by a standard broth macrodilution method, while the MIC of the test compounds on the other bacteria stains was determined by standard agar double dilution methods. The concentration of the test compounds was in the range of 32 mg/L-0.016 mg/L. The bacterial suspensions to be tested were inoculated by a multipoint inoculator, and the inoculation amount at each point is 10^4 CFU. The MIC of the test compound to each strain of the bacteria was determined.
(§7) The MBC was determined by a tube double dilution method. Solutions of the test compounds was prepared and serially diluted. Each of the solutions was mixed with a bacterium suspension (10^6 CFU/mL), and then was incubated at 35° C. overnight. […]

MRSA [3] = test: MIC against clinically isolated strains, MRSA; assay type: cell-based, methicillin resistant Staphylococcus aureus; set-up: MICmode / MICrange: unit not given here; settings: MRSA (23 strains)
Text: as §1, §2, §3, §4, §5

PNSP = test: MIC against clinically isolated strains, PNSP; assay type: cell-based, penicillin insensitive or resistant Streptococcus pneumoniae; set-up: MICmode / MICrange: unit not given here; settings: PNSP (14 grains)
Text: as §1, §2, §3, §4, §5

PSSP [4] = test: Minimum bactericidal concentration (MBC) test, PSSP; assay type: cell-based, penicillin sensitive Streptococcus pneumoniae; settings: strain 09G343, PSSP
Method: as §4, §6, §7

VRE = test: Minimum bactericidal concentration (MBC) test, VRE; assay type: cell-based, vancomycin resistant Enterococcus faecium
Method: as §4, §6
(§8) The MBC was determined by a tube double dilution method. Solutions of the test compounds was prepared and serially diluted. Each of the solutions was mixed with a bacterium suspension (10^6 CFU/mL), and then was incubated at 35° C. overnight. 0.1 mL of the culture supernatant of each tubes was inoculated on a plate containing no antibiotics, and then incubated at 35° C. for 18 h.

MSSA [5] = test: MIC against clinically isolated strains, MSSA; assay type: cell-based, methicillin sensitive Staphylococcus aureus; set-up: MICmode / MICrange: unit not given here; settings: MSSA (14 strains)
Text: as §1, §2, §3, §4, §5

MSSA [6] = test: Minimum bactericidal concentration (MBC) test, MSSA; assay type: cell-based, methicillin sensitive Staphylococcus aureus; settings: for MIC: MSSA
Method: as §4, §6, §8

VSE = test: Minimum bactericidal concentration (MBC) test, VSE; assay type: cell-based, vancomycin sensitive Enterococcus faecium
Method: as §4, §6, §8

gram-positive bacteria [7] = test: MBC test, 10 strains of clinically isolated gram-positive bacteria; assay type: cell-based
Method: In order to investigate whether the antibacterial activity of Compound 13f is bacteriostatic or bactericidal to gram-positive bacteria, we tested its MBC on 10 strains of gram-positive bacteria (established by clinical isolation), results as shown in Table 4.
as §8

gram-positive bacteria [8] = test: MIC against 120 strains of clinically isolated gram-positive bacteria; assay type: cell-based; settings: 120 clinically isolated gram-positive strains
Text: In order to further study the antibacterial spectrum of Compound 13f, we tested in vitro inhibitory activity of compound 13f on 120 strains of gram-positive bacteria established by clinical isolation, and the MIC values were shown in Table 3.
as §2, §5

[9] = Streptococcus pneumoniae, PSSP (13 strains)
[10] = Enterococcus, strain 09ZB145, VRE
[11] = Staphylococcus aureus, strain 09U035, MSSA
[12] = Enterococcus faecium, strain 09D263, VSE

## CC(=O)NC[C@H]1CN(c2ccc(-n3cc(-c4ccccn4)cn3)c(F)c2)C(=O)O1 [Compound 13f, (S)-N-((3-(3-fluoro-4-(4-(pyridin-2-yl)-1H-pyrazol-1-yl)phenyl)-2-oxooxazolidin-5-yl)methyl)acetamide]
PSSP [1]; PSSP (13 grains)
  MICrange: 0.5-1
PSSP [1]; PSSP (13 strains)
  MICmode: 1
PSSP [1]; [9]
  MIC50: 1 ng/mL (≈ 2.53 nM)
  MIC90: 1 ng/mL (≈ 2.53 nM)
Streptococcus pyogenes
  MIC50: 0.25 ng/mL (≈ 0.632 nM)
  MIC90: 0.5 ng/mL (≈ 1.26 nM)
  MICmode: 0.25
  MICrange: 0.25-0.5
MRSA [2]; strain 09L075, MRSA
  MBC/MIC: 2
  MIC value: 2 µg/L (≈ 5.06 nM)
MRSA [2]; strain 09N120, MRSA
  MBC/MIC: 1
MRSA [3]
  MICmode: 1
  MICrange: 0.5-1
MRSA [3]; Staphylococcus aureus
  MIC50: 1 ng/mL (≈ 2.53 nM)
  MIC90: 1 ng/mL (≈ 2.53 nM)
PNSP
  MICmode: 0.5
  MICrange: 0.5-1
PNSP; Streptococcus pneumoniae
  MIC50: 0.5 ng/mL (≈ 1.26 nM)
  MIC90: 1 ng/mL (≈ 2.53 nM)
PSSP [4]; Streptococcus pneumoniae
  MBC: 1 ng/mL (≈ 2.53 nM)
  MIC: 0.5 ng/mL (≈ 1.26 nM)
PSSP [4]
  MBC/MIC: 2
VRE; [10]
  MBC: 8 ng/mL (≈ 20.2 nM)
  MIC: 4 ng/mL (≈ 10.1 nM)
VRE; strain 09ZB137, VRE
  MBC value: 8 µg/L (≈ 20.2 nM)
  MBC/MIC: 2
  MIC value: 4 µg/L (≈ 10.1 nM)
VRE; strain 09ZB145, VRE
  MBC/MIC: 2
MSSA [5]
  MICmode: 1
  MICrange: 0.5-1
MSSA [5]; Staphylococcus aureus
  MIC50: 1 ng/mL (≈ 2.53 nM)
  MIC90: 1 ng/mL (≈ 2.53 nM)
MSSA [6]; Staphylococcus aureus, strain 09O077, MSSA
  MIC: 1 ng/mL (≈ 2.53 nM)
MSSA [6]; [11]
  MIC: 2 ng/mL (≈ 5.06 nM)
  MBC: 2 ng/mL (≈ 5.06 nM)
MSSA [6]; strain 09O077, MSSA
  MBC value: 2 µg/L (≈ 5.06 nM)
  MBC/MIC: 2
MSSA [6]; strain 09U035, MSSA
  MBC/MIC: 1
VSE; [12]
  MBC: 8 ng/mL (≈ 20.2 nM)
  MIC: 4 ng/mL (≈ 10.1 nM)
VSE; strain 09D263, VSE
  MBC/MIC: 2
VSE; strain 09H202, VSE
  MBC value: 8 µg/L (≈ 20.2 nM)
  MBC/MIC: 2
  MIC value: 4 µg/L (≈ 10.1 nM)
gram-positive bacteria [7]; 3 of 4 tested strains of E. faecalis
  MBC/MIC ratio: 4
gram-positive bacteria [7]; Staphylococcus sp. and Streptococcus pneumoniae
  ratio of MBC/MIC: 1-2
gram-positive bacteria [7]; all the 10 tested strains
  ratio of MBC/MIC: ≤ 4
gram-positive bacteria [7]; all the 10 tested strains, MBC/MIC ≦4
  bacteriostatic or bactericidal: bactericidal effect
gram-positive bacteria [8]
  antibacterial activity on test strains compared with Linezolid: almost the same with that of Linezolid
